Experimental data as given in US9486398B2, “Composition” (J-OIL MILLS, INC., priority 2012, dated 2016).
Entries after “also recorded” stand apart in the source; their conditions may differ.

Tested on: hairless mice Hos:HR1
Experiment: Stratum corneum water-retaining function (moisture in the keratin, corneometer, back skin)
Assay type: in vivo
Conditions: intragastric once a day for 28 days, menaquinone-7 10 mg/kg, collagen hydrolysate 80 mg/kg, soyasapogenol 50 mg/kg
Description: In addition to the reference diet, the test substances shown in Table 6 were administered to the study groups in Examples and Comparative Examples. By dissolving the test substances in a 0.5% carboxymethyl cellulose sodium solution (hereinafter referred to as CMC-Na solution), the composition (skin function improving agent) was prepared.
Forty two hairless mice Hos:HR1 (male, 5-week old) were prepared. Through the 1-week acclimation period and the test period, the mice were freely fed a reference diet (product name: CRF-1, manufactured by Oriental Yeast Co., Ltd.) and water. The insolation condition was set to day and night every 12 hours. After the acclimation period, grouping of 6 mice/group was performed so that the body weight between groups was homogenous.
Continuous and forced intragastric administration of the above composition was performed to the mice once a day for 28 days using a stomach tube. The reference diet and 0.05 mL per 10 g of body weight of a 0.5% CMC-Na solution were administered to the control group.
The keratin usually contains 20% to 30% of water. […] By measuring the moisture in the keratin, the stratum corneum water-retaining function (i.e., skin moisture-retaining function) of a skin function improving agent can be evaluated. […]

SMILES: CC(C)=CCC/C(C)=C/CC/C(C)=C/CC/C(C)=C/CC/C(C)=C/CC/C(C)=C/CC/C(C)=C/CC1=C(C)C(=O)c2ccccc2C1=O [Comparative Example 1, menaquinone-7]
- keratin moisture fluctuation value (moisture in the keratin, day 28 minus day before administration): no function of keratin water retention; also recorded: no stratum corneum water-retaining function
- keratin moisture fluctuation value (moisture in the keratin, day 28 minus day before administration) (listed as menaquinone-7): does not exert the keratin water-retaining function; also recorded: does not exert the stratum corneum water-retaining function
